Tested on: HT-29 cells
Test: Necroptosis assay (TNF-α/Smac mimetic/z-VAD, TSZ-induced) in HT-29 cells
Format: cell-based, human
Details: Homo sapiens, HT-29, 24 h; read-out: EC50 (nM), potency in TSZ-induced necroptosis assays in HT-29 cells
Protocol: Methods: HT-29 cells were cultured in McCoy's 5 A culture medium (Invitrogen). On day one, HT-29 cells were plated in 96-well assay plates at density of 2,500-3,500 cells per well. On day two, necrosis were induced by adding 20 ng/ml TNF-α (T), 100 nM Smac mimetic (S), and […] z-VAD (Z). At the same time, 10 mM compound from a chemical library of ˜200,000 compounds was delivered into each well. After 24 hrs treatment, cell viability was determined by measuring ATP level using the Cell Titer-Glo Luminescent Cell Viability Assay kit. A CellTiter-Glo Assay (Promega) was performed according to the manufacturer's instructions. Luminescence was recorded with a PerkinElmer EnSpire Multimode Plate Reader. Survived cells were normalized to those cells treated with DMSO. RIPA-56 was used as a positive control for screening necroptosis inhibitors. Data are represented as mean±standard deviation of duplicates.
In previous work, we performed a cell-based high-throughput screen to identify necroptosis inhibitors using a chemical library of ˜200,000 compounds and identified multiple compounds that protected human colorectal adenocarcinoma (HT-29) cells from TNF-α/Smac mimetic/Z-VAD-fmk (TSZ)-induced necroptosis.^[4]
The anti-necroptosis potency of compounds 7-12 and 14-18 was evaluated in the HT-29 cell line; the EC50 values are shown in Table B.
[a] Necroptosis was induced in HT-29 cells for 24 h; the EC50 values given here are the mean values of at least three independent analyses.

| SMILES | EC50 [nM] |
| --- | --- |
| C#CCn1c(=O)n(C)c(=O)c2c1nc(S(C)(=O)=O)n2C [Compound 12] | 152 ± 23 |

Same assay, conditions: Homo sapiens; Series 1 (Table 1) compounds 1-146; HT-29 cells, TNF-α/Smac mimetic/z-VAD, 24 hrs, cell viability by ATP level; read-out: Series 1 compound necroptosis activity

| SMILES | EC50 [nM] |
| --- | --- |
| Cn1c(=O)c2c(nc(S(C)(=O)=O)n2C)n(C)c1=O [Compound 4, 1,3,7-trimethyl-8-(methylsulfonyl)-1H-purine-2,6(3H,7H)-dione] | 1000 to 10000 |
| CCS(=O)(=O)c1nc2c(c(=O)n(C)c(=O)n2C)n1C [Compound 7, 8-(ethylsulfonyl)-1,3,7-trimethyl-1H-purine-2,6(3H,7H)-dione] | 1000 to 100000 |
| CCCS(=O)(=O)c1nc2c(c(=O)n(C)c(=O)n2C)n1C [Compound 10, 1,3,7-trimethyl-8-(propylsulfonyl)-1H-purine-2,6(3H,7H)-dione] | 1000 to 100000 |
| Cn1c(=O)c2c(nc(S(=O)(=O)CC3CC3)n2C)n(C)c1=O [Compound 13, 8-(cyclopropylmethylsulfonyl)-1,3,7-trimethyl-1H-purine-2,6(3H,7H)-dione] | 1000 to 100000 |
| CC(C)S(=O)(=O)c1nc2c(c(=O)n(C)c(=O)n2C)n1C [Compound 18] | 1000 to 100000 |
| Cn1c(=O)c2c(nc(S(=O)(=O)Cc3ccccc3)n2C)n(C)c1=O [Compound 21, 8-(benzylsulfonyl)-1,3,7-trimethyl-1H-purine-2,6(3H,7H)-dione] | 1000 to 100000 |

Same assay, conditions: Homo sapiens; Series 2 (Table 2) compounds; HT-29 necroptosis assay; read-out: Series 2 compound necroptosis activity

| SMILES | EC50 [nM] |
| --- | --- |
| Cn1c(=O)c2c(nc(S(=O)(=O)CCCO)n2C)n(C)c1=O [Compound 3] | 100 to 10000 |
| COCCn1c(S(C)(=O)=O)nc2c1c(=O)n(C)c(=O)n2C [Compound 6] | 10000 to 100000 |
| Cn1c(=O)c2c(nc([S+](C)[O-])n2C)n(CC#Cc2cccc(O)c2)c1=O (stereo not shown) [Compound 8] | 1 to 100 |
| Cn1c(=O)c2c(nc(S(C)(=O)=O)n2C)n(CC#Cc2cccc(NC(=O)c3ccccc3)c2)c1=O [Compound 11] | 1 to 100 |
| COCCOCCNc1cccc(C#CCn2c(=O)n(C)c(=O)c3c2nc(S(C)(=O)=O)n3C)c1 [Compound 12] | 1 to 100 |
| Cn1c(=O)c2c(nc(S(C)(=O)=O)n2C)n(CC#Cc2cccc(NCc3ccccc3)c2)c1=O [Compound 13] | 1 to 100 |
| Cn1c(=O)c2c(nc(S(C)(=O)=O)n2C)n(CC#Cc2cccc(NCCN3CCOCC3)c2)c1=O [Compound 14] | 1 to 100 |
| CCCCCNc1cccc(C#CCn2c(=O)n(C)c(=O)c3c2nc(S(C)(=O)=O)n3C)c1 [Compound 16] | 100 to 10000 |
| Cn1c(=O)c2c(nc(S(C)(=O)=O)n2C)n(CC#Cc2cccc(NC(=O)CN3CCOCC3)c2)c1=O [Compound 17] | 1 to 100 |
| Cn1c(=O)c2c(nc(S(C)(=O)=O)n2C)n(CC#Cc2cccc(NCCN3CCCCC3)c2)c1=O [Compound 18] | 100 to 10000 |
| Cn1c(=O)c2c(nc(S(=O)(=O)CC3CC3)n2C)n(CC#Cc2cccc(NCCN3CCOCC3)c2)c1=O [Compound 19] | 1 to 100 |
| Cn1c(=O)c2c(nc(S(C)(=O)=O)n2C)n(CC#Cc2cc(F)cc(NC(=O)CN3CCOCC3)c2)c1=O [Compound 20] | 1 to 100 |
| COc1cc(C#CCn2c(=O)n(C)c(=O)c3c2nc(S(C)(=O)=O)n3C)cc(NCCN2CCOCC2)c1 [Compound 21] | 1 to 100 |
| Cn1c(=O)c2c(nc(S(=O)(=O)CC3CC3)n2C)n(CC#Cc2cc(NC(=O)CN3CCOCC3)ccc2Cl)c1=O [Compound 22] | 1 to 100 |
| Cn1c(=O)c2c(nc(S(C)(=O)=O)n2C)n(CC#Cc2ccc3[nH]c(=O)[nH]c3c2)c1=O [Compound 23] | 100 to 10000 |
| Cn1c(=O)c2c(nc(S(C)(=O)=O)n2C)n(CC#Cc2ccnc(N)n2)c1=O [Compound 24] | 1 to 100 |
| Cn1c(=O)c2c(nc(S(C)(=O)=O)n2C)n(CC#Cc2cc(NC(=O)CN3CCOCC3)cc(NC(=O)CN3CCOCC3)c2)c1=O [Compound 26] | 1 to 100 |
| Cn1c(=O)c2c(nc(S(C)(=O)=O)n2C)n(CC#Cc2cc(NC(=O)C3CC3)cc(NC(=O)C3CC3)c2)c1=O [Compound 27] | 1 to 100 |
| Cn1c(=O)c2c(nc(S(=O)(=O)CC3CC3)n2C)n(CC#Cc2cc(NC(=O)CN3CCOCC3)cc(NC(=O)CN3CCOCC3)c2)c1=O [Compound 28] | 1 to 100 |
| Cn1c(=O)c2c(nc(S(=O)(=O)CC3CC3)n2C)n(CC#Cc2cc(NC(=O)C3CC3)cc(NC(=O)C3CC3)c2)c1=O [Compound 30] | 1 to 100 |
| Cn1c(=O)c2c(nc(S(=O)(=O)CC3CC3)n2C)n(CC#Cc2ccnc(NC(=O)C3CC3)c2)c1=O [Compound 31] | 1 to 100 |
| Cn1c(=O)c2c(nc(S(=O)(=O)CC3CC3)n2C)n(CC#Cc2ccnc(NC(=O)CN3CCOCC3)c2)c1=O [Compound 32] | 1 to 100 |
| CCNc1cc(C#CCn2c(=O)n(C)c(=O)c3c2nc(S(=O)(=O)CC2CC2)n3C)ccn1 [Compound 33] | 1 to 100 |

Same assay, conditions: Series 1 (Table 1) compounds 1-146; HT-29 cells, TNF-α/Smac mimetic/z-VAD, 24 hrs, cell viability by ATP level; read-out: Series 1 compound necroptosis activity

| SMILES | EC50 [nM] |
| --- | --- |
| CSc1nc2c(c(=O)n(C)c(=O)n2C)n1C [Compound 2, 1,3,7-trimethyl-8-(methylthio)-1H-purine-2,6(3H,7H)-dione] | 1000 to 1e+06 |
| Cn1c(=O)c2c(nc([S+](C)[O-])n2C)n(C)c1=O (stereo not shown) [Compound 3, 1,3,7-trimethyl-8-(methylsulfinyl)-1H-purine-2,6(3H,7H)-dione] | 1000 to 1e+06 |
| CCSc1nc2c(c(=O)n(C)c(=O)n2C)n1C [Compound 5, 8-(ethylthio)-1,3,7-trimethyl-1H-purine-2,6(3H,7H)-dione] | 1000 to 1e+06 |
| CC[S+]([O-])c1nc2c(c(=O)n(C)c(=O)n2C)n1C (stereo not shown) [Compound 6, 8-(ethylsulfinyl)-1,3,7-trimethyl-1H-purine-2,6(3H,7H)-dione] | 1000 to 1e+06 |
| CCC[S+]([O-])c1nc2c(c(=O)n(C)c(=O)n2C)n1C (stereo not shown) [Compound 9, 1,3,7-trimethyl-8-(propylsulfinyl)-1H-purine-2,6(3H,7H)-dione] | 1000 to 1e+06 |
| Cn1c(=O)c2c(nc(S(=O)(=O)c3ccccc3)n2C)n(C)c1=O [Compound 20, 1,3,7-trimethyl-8-(phenylsulfonyl)-1H-purine-2,6(3H,7H)-dione] | 1000 to 1e+06 |
| Cn1c(=O)c2c(nc(S(=O)(=O)CCc3ccccc3)n2C)n(C)c1=O [Compound 22, 1,3,7-trimethyl-8-(phenethylsulfonyl)-1H-purine-2,6(3H,7H)-dione] | 1000 to 1e+06 |
| Cn1c(=O)c2c(nc(S(=O)(=O)Cc3ccc4ccccc4c3)n2C)n(C)c1=O [Compound 23, 1,3,7-trimethyl-8-(naphthalen-2-ylmethylsulfonyl)-1H-purine-2,6(3H,7H)-dione] | 1000 to 1e+06 |
| Cn1c(=O)c2c(nc(S(=O)(=O)Cc3cccc4ccccc34)n2C)n(C)c1=O [Compound 24, 1,3,7-trimethyl-8-(naphthalen-1-ylmethylsulfonyl)-1H-purine-2,6(3H,7H)-dione] | 1000 to 1e+06 |
| Cn1c(=O)c2c(nc(S(=O)(=O)CCc3cn(CCOCCOCCOCCNC(=O)CCCC[C@@H]4SCC5NC(=O)NC54)nn3)n2C)n(C)c1=O (stereo partly drawn) [Compound 25, 5-((4S)-2-oxohexahydro-1H-thieno[3,4-d]imidazol-4-yl)-N-(2-(2-(2-(2-(4-(2-(1,3,7-trimethyl-2,6-dioxo-2,3,6,7-tetrahydro-1H-purin-8-ylsulfonyl)ethyl)-1H-1,2,3-triazol-1-yl)ethoxy)ethoxy)ethoxy)ethyl)pentanamide] | 1000 to 1e+06 |
| Cn1c(=O)c2c(nc(S(=O)(=O)Cc3ccccc3F)n2C)n(C)c1=O [Compound 26, 8-(2-fluorobenzylsulfonyl)-1,3,7-trimethyl-1H-purine-2,6(3H,7H)-dione] | 1000 to 1e+06 |
| Cn1c(=O)c2c(nc(S(=O)(=O)Cc3cccc(F)c3)n2C)n(C)c1=O [Compound 27, 8-(3-fluorobenzylsulfonyl)-1,3,7-trimethyl-1H-purine-2,6(3H,7H)-dione] | 1000 to 1e+06 |
| Cn1c(=O)c2c(nc(S(=O)(=O)Cc3ccc(F)cc3)n2C)n(C)c1=O [Compound 28, 8-(4-fluorobenzylsulfonyl)-1,3,7-trimethyl-1H-purine-2,6(3H,7H)-dione] | 1000 to 1e+06 |
| Cn1c(=O)c2c(nc(S(=O)(=O)Cc3ccccc3Cl)n2C)n(C)c1=O [Compound 29, 8-(2-chlorobenzylsulfonyl)-1,3,7-trimethyl-1H-purine-2,6(3H,7H)-dione] | 1000 to 1e+06 |
| Cn1c(=O)c2c(nc(S(=O)(=O)Cc3cccc(Cl)c3)n2C)n(C)c1=O [Compound 30, 8-(3-chlorobenzylsulfonyl)-1,3,7-trimethyl-1H-purine-2,6(3H,7H)-dione] | 1000 to 1e+06 |
| Cn1c(=O)c2c(nc(S(=O)(=O)Cc3ccc(Cl)cc3)n2C)n(C)c1=O [Compound 31, 8-(4-chlorobenzylsulfonyl)-1,3,7-trimethyl-1H-purine-2,6(3H,7H)-dione] | 1000 to 1e+06 |
| Cn1c(=O)c2c(nc(S(=O)(=O)Cc3ccccc3Br)n2C)n(C)c1=O [Compound 32, 8-(2-bromobenzylsulfonyl)-1,3,7-trimethyl-1H-purine-2,6(3H,7H)-dione] | 1000 to 1e+06 |
| Cn1c(=O)c2c(nc(S(=O)(=O)Cc3cccc(Br)c3)n2C)n(C)c1=O [Compound 33, 8-(3-bromobenzylsulfonyl)-1,3,7-trimethyl-1H-purine-2,6(3H,7H)-dione] | 1000 to 1e+06 |
| Cn1c(=O)c2c(nc(S(=O)(=O)Cc3ccc(Br)cc3)n2C)n(C)c1=O [Compound 34, 8-(4-bromobenzylsulfonyl)-1,3,7-trimethyl-1H-purine-2,6(3H,7H)-dione] | 1000 to 1e+06 |
